This passage reports Kd results from article PMC9548378 (Science translational medicine, 2022).

The assay has as its target T1, KDM4B (Homo sapiens, UniProt O94953).
T1 sequence (O94953 1-366): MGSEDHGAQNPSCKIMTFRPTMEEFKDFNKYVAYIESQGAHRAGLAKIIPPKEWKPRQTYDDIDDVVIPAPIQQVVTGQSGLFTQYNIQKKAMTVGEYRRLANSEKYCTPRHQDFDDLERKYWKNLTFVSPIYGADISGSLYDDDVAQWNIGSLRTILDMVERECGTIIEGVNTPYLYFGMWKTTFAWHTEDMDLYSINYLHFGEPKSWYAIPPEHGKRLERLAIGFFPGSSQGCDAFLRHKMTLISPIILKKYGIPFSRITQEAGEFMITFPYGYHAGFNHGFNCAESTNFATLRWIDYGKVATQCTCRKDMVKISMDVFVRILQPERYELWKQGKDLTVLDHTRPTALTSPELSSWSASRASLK
The experiment in a line: co-crystal structure. The assay is classed as binding.

Take `CN(c1ccccc1)c1ccc2c(c1)CCC[C@H]2CNc1cnccc1C(=O)O` [QC6352]: the equilibrium dissociation constant (Kd) (commonly the concentration at which binding is half-saturated) stood at 105 nM. That is a sub-micromolar value.
